Experimental data taken from patent US6710063B1, “Activators of PPAR delta” (SmithKline Beecham Corporation, priority 1999, dated 2004).
Structures can show the parent of a compound that is named as a salt.

Tested on: obese rhesus monkeys
Test: 6-month dose escalation study in obese rhesus monkeys
Type: in vivo, rhesus monkey
Conditions: 3 mg/kg dose bid, in each monkey
Experimental: The compound of Example 66 was examined in a Rhesus model. […] HDLc increased by more than 40% in each monkey at the 3 mg/kg dose. […] Serum TG concentrations decreased by more than 30% in each monkey. Fasting insulin decreased by more than 20% in each monkey. Serum fibrinogen concentrations decreased by 10 20%, with peak activity observed at doses of 0.3 and 1 mg/kg.

| SMILES | HDLc increase |
| --- | --- |
| Cc1cc(SCc2sc(-c3ccc(C(F)(F)F)cc3)nc2C)ccc1OCC(=O)O [Example 66, 2-{2-Methyl-4-[({4-methyl-2-[4-(trifluoromethyl)phenyl]-1,3-thiazol-5-yl}methyl)sulfanyl]phenoxy}acetic Acid] | more than 40% |

Same assay, conditions: 0.1, 0.3, 1, and 3 mg/kg bid for 28 days each

| SMILES | HDLc change with each dose |
| --- | --- |
| Cc1cc(SCc2sc(-c3ccc(C(F)(F)F)cc3)nc2C)ccc1OCC(=O)O [Example 66, 2-{2-Methyl-4-[({4-methyl-2-[4-(trifluoromethyl)phenyl]-1,3-thiazol-5-yl}methyl)sulfanyl]phenoxy}acetic Acid] | raised HDLc with each dose |

Same assay, conditions: dose escalation 0.1-3 mg/kg bid

| SMILES | LDLc particle composition (NMR analysis of lipoprotein particles) |
| --- | --- |
| Cc1cc(SCc2sc(-c3ccc(C(F)(F)F)cc3)nc2C)ccc1OCC(=O)O [Example 66, 2-{2-Methyl-4-[({4-methyl-2-[4-(trifluoromethyl)phenyl]-1,3-thiazol-5-yl}methyl)sulfanyl]phenoxy}acetic Acid] | shift in the LDLc composition to fewer and larger LDLc particles |

Same assay, conditions: in each monkey

| SMILES | Fasting insulin decrease | Serum TG concentration decrease |
| --- | --- | --- |
| Cc1cc(SCc2sc(-c3ccc(C(F)(F)F)cc3)nc2C)ccc1OCC(=O)O [Example 66, 2-{2-Methyl-4-[({4-methyl-2-[4-(trifluoromethyl)phenyl]-1,3-thiazol-5-yl}methyl)sulfanyl]phenoxy}acetic Acid] | more than 20% | more than 30% |

Tested on: not given
Test: not given
Conditions: not given

| melting point [°C] | SMILES |
| --- | --- |
| 128 to 130 | Cc1nc(-c2ccc(C(F)(F)F)cc2)sc1CCOc1ccc(CCC(=O)O)cc1 [Example 14] |
| 150 to 152 | COc1cc(CCC(=O)O)ccc1OCc1sc(-c2ccc(C(F)(F)F)cc2)nc1C [Example 6, 3-[3-Methoxy-4-({4-methyl-2-[4-(trifluoromethyl)phenyl]-1,3-thiazol-5-yl}methoxy)phenyl]propanoic Acid] |
| 126 to 127 | Cc1nc(-c2ccc(C(F)(F)F)cc2)sc1COc1ccc(CC(=O)O)cc1Cl [Example 36, 2-[3-Chloro-4-({4-methyl-2-[4-(trifluoromethyl)phenyl]-1,3-thiazol-5-yl}methoxy)phenyl]acetic Acid] |
| 128 to 130 | Cc1nc(-c2ccc(C(F)(F)F)cc2)sc1CCOc1ccc(CC(=O)O)cc1 [Example 32] |
| 189 to 191 | Cc1nc(-c2ccc(C(F)(F)F)cc2)oc1COc1ccc(CC(=O)O)cc1Cl (as salt: salt) [Example 50, 2-[3-Chloro-4-({4-methyl-2-[4-(trifluoromethyl)phenyl]-1,3-oxazol-5-yl}methoxy)phenyl]acetic Acid] |
| 142 to 147 | Cc1sc(-c2ccc(C(F)(F)F)cc2)nc1CCOc1ccc(CCC(=O)O)cc1 [Example 10, 3-[4-(2-{5-Methyl-2-[4-(trifluoromethyl)phenyl]-1,3-thiazol-4-yl}ethoxy)phenyl]propanoic Acid] |
| 174 to 176 | Cc1cc(OCc2sc(-c3ccc(C(F)(F)F)cc3)nc2C)ccc1OCC(=O)O [Example 54, 2-[2-Methyl-4-({4-methyl-2-[4-(trifluoromethyl)phenyl]-1,3-thiazol-5-yl}methoxy)phenoxy]acetic Acid] |
| 193 | Cc1nc(-c2ccc(C(F)(F)F)cc2)oc1COc1ccc(/C=C/C(=O)O)cc1 [Example 22, (E)-3-[4-({4-Methyl-2-[4-(trifluoromethyl)phenyl]-1,3-oxazol-5-yl}methoxy)phenyl]-2-propenoic Acid] |
| 181 to 182 | COc1cc(CC(=O)O)ccc1SCc1sc(-c2ccc(C(F)(F)F)cc2)nc1C (as salt: salt) [Example 52, 2-{3-Methoxy-4-[({4-methyl-2-[4-(trifluoromethyl)phenyl]-1,3-thiazol-5-yl}methyl)sulfanyl]phenyl}acetic Acid] |
| 134 to 135 | Cc1nc(-c2cccc(C(F)(F)F)c2)oc1COc1ccc(CCC(=O)O)cc1 [Example 16, 3-[4-({4-Methyl-2-[3-(trifluoromethyl)phenyl]-1,3-oxazol-5-yl}methoxy)phenyl]propanoic Acid] |
| 138 to 140 | Cc1nc(-c2ccc(C(F)(F)F)cc2)oc1COc1ccc(SCC(=O)O)cc1 [Example 44, 2-{[4-({4-Methyl-2-[4-(trifluoromethyl)phenyl]-1,3-oxazol-5-yl}methoxy)phenyl]sulfanyl}acetic Acid] |
| 162 to 163 | COc1cc(CCC(=O)O)ccc1OCc1oc(-c2ccc(C(F)(F)F)cc2)nc1C [Example 24] |

The next lines start with the molecule.

| SMILES | melting point [°C] |
| --- | --- |
| Cc1cc(SCc2sc(-c3cc(C(F)(F)F)cc(C(F)(F)F)c3)nc2C)ccc1OCC(=O)O [Example 79, 2-{2-Methyl-4-[({4-methyl-2-[3,5-bis(trifluoromethyl)phenyl]-1,3-thiazol-5-yl}methyl)sulfanyl]phenoxy}acetic Acid] | 178 |
| Cc1nc(-c2ccc(C(F)(F)F)cc2)sc1CSc1ccc(CC(=O)O)cc1 (as salt: salt) [Example 48, 2-{4-[({4-Methyl-2-[4-(trifluoromethyl)phenyl]-1,3-thiazol-5-yl}methyl)sulfanyl]phenyl}acetic Acid] | 202 to 203 |
| Cc1nc(-c2ccc(C(F)(F)F)cc2)sc1COc1ccc(N(C)CC(=O)O)cc1 [Example 38, N-Methyl-N-[4-(2-[4-Trifluromethylphenyl]-4-methyl-thiazole-5-ylmethoxy)phenyl]-acetic Acid] | 124 to 126 |
| Cc1cc(SCc2sc(-c3ccc(Cl)cc3)nc2C)ccc1OCC(=O)O [Example 71, 2-{2-Methyl-4-[({4-methyl-2-[4chlorophenyl]-1,3-thiazol-5-yl}methyl)sulfanyl]phenoxy}acetic Acid] | 109 |
| Cc1cc(SCc2sc(-c3ccc(F)c(F)c3)nc2C)ccc1OCC(=O)O [Example 77, 2-{2-Methyl-4-[({4-methyl-2-[3,4-difluorophenyl]-1,3-thiazol-5-yl}methyl)sulfanyl]phenoxy}acetic Acid] | 119 |
| Cc1nc(-c2ccc(C(F)(F)F)cc2)sc1CSc1ccc(OCC(=O)O)cc1 [Example 62, 2-{4-[({4-Methyl-2-[4-(trifluoromethyl)phenyl]-1,3-thiazol-5-yl}methyl)sulfanyl]phenoxy}acetic Acid] | 190 |
| Cc1cc(SCc2sc(-c3ccc(F)cc3)nc2C)ccc1OCC(=O)O [Example 73, 2-{2-Methyl-4-[({4-methyl-2-[4-fluorophenyl]-1,3-thiazol-5-yl}methyl)sulfanyl]phenoxy}acetic Acid] | 45 to 46 |
| Cc1cc(SCc2sc(-c3ccc(Br)cc3)nc2C)ccc1OCC(=O)O [Example 69, 2-{2-Methyl-4-[({4-methyl-2-[4-bromophenyl]-1,3-thiazol-5-yl}methyl)sulfanyl]phenoxy}acetic Acid] | > 250 |
| Cc1cc(SCc2sc(-c3ccc(Cl)c(Cl)c3)nc2C)ccc1OCC(=O)O [Example 75, 2-{2-Methyl-4-[({4-methyl-2-[3,4-dichlorophenyl]-1,3-thiazol-5-yl}methyl)sulfanyl]phenoxy}acetic Acid] | 143 |

Molecular target: T1, hPPARδ (Homo sapiens, UniProt Q03181)
T1 construct: polyHis; made in house; host or cells: E. coli
T1 sequence (Q03181 211-439 limits assumed): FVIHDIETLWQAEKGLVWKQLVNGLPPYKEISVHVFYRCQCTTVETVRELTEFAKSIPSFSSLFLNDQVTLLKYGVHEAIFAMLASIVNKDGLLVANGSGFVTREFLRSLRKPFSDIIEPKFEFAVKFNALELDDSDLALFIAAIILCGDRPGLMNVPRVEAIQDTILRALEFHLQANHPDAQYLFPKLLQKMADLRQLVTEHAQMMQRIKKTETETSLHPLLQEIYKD
Test: Scintillation Proximity Assay (SPA) binding to PPAR ligand binding domain
Conditions: radioligand GW 2433 for PPARδ, receptor subtype not named in the result sentence, read-out: Apparent pKi (converted)
Experimental: Compounds were tested for their ability to bind to hPPARγ hPPARα, or PPARδ using a Scintillation Proximity Assay (SPA). The PPAR ligand binding domain (LBD) was expressed in E. coli as polyHis tagged fusion proteins and purified. The LBD was then labeled with biotin and immobilized on streptavidin-modified scintillation proximity beads. The beads were then incubated with a constant amount of the appropriate radio ligand (^3H-BRL 49653 for PPARγ, 2-(4-(2-(2,3-Ditritio-1-heptyl-3-(2,4-difluorophenyl)ureido)ethyl)phenoxy)-2-methylbutanoic acid (described in WO/008002) for hPPARα and GW 2433 (see Brown, P. J et al. Chem. Biol. 1997, 4, 909-918. For the structure and synthesis of this ligand) for PPARδ) and variable concentrations of test compound, and after equilibration the radioactivity bound to the beads was measured by a scintillation counter. The amount of nonspecific binding, as assessed by control wells containing 50 μM of the corresponding unlabelled ligand, was subtracted from each data point. For each compound tested, plots of ligand concentration vs. CPM of radio ligand bound were constructed and apparent Ki values were estimated from nonlinear least squares fit of the data assuming simple competitive binding. […]

| Ki [µM] | SMILES |
| --- | --- |
| > 0.316 | COC(=O)COc1ccc(SCc2sc(-c3ccc(C(F)(F)F)cc3)nc2C)cc1 [Example 61, Methyl 2-{4-[({4-Methyl-2-[4-(trifluoromethyl)phenyl]-1,3-thiazol-5-yl}methyl)sulfanyl]phenoxy}acetate] |

Tested on: not listed separately
Test: Stability at ambient temperature (observation on isolated compound)
Type: physicochemical
Conditions: not given
Experimental: Example 37 was hydrolyzed as described in general procedure 3 to afford the title compound (45%) as a yellow solid: mp 124-126° C.; 1H-NMR (acetone-d6) δ 2.47 (s, 3H), 3.09 (s, 3H), 408(s, 2H), 5.25 (s, 2H), 6.70 (d, 2H), 6.91 (d, 2H), 7.83 (d, 2H), 8.16 (d, 2H); MS m/z 437(M+1)−.

| SMILES | stability at ambient temperature |
| --- | --- |
| Cc1nc(-c2ccc(C(F)(F)F)cc2)sc1COc1ccc(N(C)CC(=O)O)cc1 [Example 38, N-Methyl-N-[4-(2-[4-Trifluromethylphenyl]-4-methyl-thiazole-5-ylmethoxy)phenyl]-acetic Acid] | unstable and gradually decomposed at ambient temperature |
